According to article PMC4452589, “An evaluation of the brain distribution of [^11C]GSK1034702, a muscarinic-1 (M1) positive allosteric modulator in the living human brain using positron emission tomography” (EJNMMI Research, 2014):
Where two headings read alike, the source gives them in different places.

Assays:
[1] = plasma concentration after single 5-mg oral dose in humans; assay type: in vivo; settings: human, read-out: GSK1034702 plasma concentration at start of post-dose PET scan
Protocol: Serial venous blood samples were obtained at 0, 1, 2, 3, 4 and 5.5 h after the administration of a single oral dose of 5 mg of GSK1034702, to estimate the time course of GSK1034702 plasma concentration. Plasma samples were analysed using a validated analytical method.

[2] = plasma protein binding by equilibrium dialysis, rat; assay type: in vitro ADME; settings: equilibrium dialysis 5 h
Protocol: (§1) The in vitro brain and plasma protein binding of GSK1034702 across a range of species was determined using equilibrium dialysis as described previously.

[3] = design: method as in GlaxoSmithKline (GSK) data on file; settings: rat; ref GlaxoSmithKline (GSK) data on file; cited from earlier work
[4] = plasma free fraction by ultrafiltration, baboon arterial plasma; assay type: in vitro ADME; settings: baboon (Papio anubis), mean ± SD, read-out: free fraction in plasma (fP)
Protocol: For all non-human primate studies, the non-protein-bound fraction of [^11C]GSK1034702 in arterial plasma (fP) was quantified using the following methodology: triplicate 200 μL aliquots of plasma collected before injection were mixed with [^11C]GSK1034702, pipetted into ultrafiltration units (Centrifree; Amicon, Danvers, MA, USA) and centrifuged at room temperature (20 min at 4,000 rpm). At the end of centrifugation, plasma and ultrafiltrate activities were counted and fP was calculated as the ratio of ultrafiltrate to total activity concentrations.

[5] = [11C]GSK1034702 PET brain distribution and kinetics in anaesthetised baboons; assay type: in vivo, Papio anubis; settings: for Kp: baboon (Papio anubis), intravenous
Protocol: The brain distribution of carbon-11-labelled GSK1034702 ([^11C]GSK1034702) was conducted in two anaesthetised baboons (P. anubis), to assess its transport across the BBB. These studies were conducted at Columbia University Medical Center, New York. The study was approved by the Columbia University Institutional Animal Care and Use Committee (IACUC).
Two adult baboons were studied over a 6-week period. Subject A (an ovariectomised female) received two injections of [^11C]GSK1034702 22 days apart, while subject B (male) received a single injection of [^11C]GSK1034702. Each experimental session included a single dynamic PET scan.
Fasted animals were immobilised with intramuscular ketamine injection (10 mg/kg), and anesthetised with 1.8% isoflurane via an endotracheal tube. Vital signs were monitored every 10 min and the temperature was kept constant at 37°C with heated water blankets. An intravenous (IV) perfusion line was used for hydration and injection of the radiotracer. A catheter was inserted in a femoral artery for arterial blood sampling. The head was positioned at the centre of the field of view. PET imaging was performed with the ECAT EXACT HR + PET scanner (Siemens/CTI, Knoxville, TN) operating in 3D mode (in-plane resolution of 4.3, 4.5, 5.4 and 8.0 mm, full width at half maximum (FWHM) at a distance of 0, 1, 10 and 20 cm from the centre of the field of view). A 15-min transmission scan was obtained prior to radiotracer injection for attenuation correction. […] Following IV administration (45-s bolus) of a single dose of [^11C]GSK1034702 dynamic PET, arterial blood and metabolite data were acquired for 120 min (subject A) for the first two scans and only 60 min for the third scan due to a technical issue (subject B).
Regions of interest (ROIs) were drawn on previously acquired T1-weighted anatomical magnetic resonance imaging (MRI) brain images for each animal. The following regions were defined: cerebellum, hippocampus, thalamus, striatum, frontal cortex and occipital cortex. Regions were drawn in the MEDx (Sensor Systems Inc., Sterling, VA, USA) software environment. PET emission data were attenuation-corrected using the transmission scan, and frames were reconstructed using a Shepp filter (cutoff 0.5 cycles/projection rays). Decay-corrected PET images were registered to the MRI images by maximisation of mutual information using SPM2 and Matlab software. Regional boundaries were transferred from the MRI to the individual registered PET frames, and time-activity curves were measured in the MEDx environment. Right and left regions were averaged. For a given animal, the same regions were used for all scans.
Brain time activity curves (TACs) were corrected for the contribution of blood activity assuming a 5% blood volume. A metabolite-corrected arterial input function and regional TACs were fitted to a compartmental model to derive regional VT estimates as well as a whole brain VT.

[6] = brain tissue binding by equilibrium dialysis, monkey; assay type: in vitro ADME; settings: equilibrium dialysis 5 h
Protocol: as §1

[7] = brain tissue binding by equilibrium dialysis, mouse; assay type: in vitro ADME; settings: equilibrium dialysis 5 h
Protocol: as §1

[8] = brain tissue binding by equilibrium dialysis, dog; assay type: in vitro ADME; settings: equilibrium dialysis 5 h
Protocol: as §1

[9] = brain tissue binding by equilibrium dialysis, rat; assay type: in vitro ADME; settings: equilibrium dialysis 5 h; for Brain tissue binding: 1 μg/mL, mean ± SD, n = 6; for fraction unbound at 5 h, 1 μg/mL: brain tissue, read-out: f ND (brain-free fraction)
Protocol: as §1

[10] = fP/fND ratio from equilibrium dialysis (expected VT for passive diffusion), primate; assay type: in vitro ADME; settings: primate brain; monkey fP and monkey brain fND
Description: If a value for fND can be obtained, then the assumption of passive diffusion across the BBB can be tested. Under the conditions of passive diffusion, at equilibrium, CFT = CFP, and Eq. 3 is simplified to:4 VT=fP/fND
A VT measurement from a PET biodistribution study can be compared to the fP/fND ratio, and passive diffusion can be assumed if the two are similar. Equilibrium dialysis provides a practical method for measurements of brain tissue fND (and also fP if necessary).
Regional TACs with an arterial plasma metabolite- corrected input function were fitted using compartmental analyses, and estimates of the delivery rate constant for transfer from arterial plasma to tissue (K1) and VT were obtained. VT estimates derived were compared to in vitro estimates derived from equilibrium dialysis to investigate the BBB transport process.
as §1

[11] = both sexes, whole brain, Papio anubis, mean ± SD of three scans, two-tissue compartmental model, read-out: whole brain VT
[12] = brain tissue, read-out: f ND (brain-free fraction)

Cc1cc(F)c2[nH]c(=O)n(C3CCN(C4CCOCC4)CC3)c2c1 [GSK1034702]
concentration at 3.2 h ([1]; Subject 2, 3.2 hours post dose): 7.9 ng/mL
concentration at 4.4 h ([1]; Subject 3, 4.4 hours post dose): 13.2 ng/mL
concentration at 3.8 h ([1]; Subject 4, 3.8 hours post dose): 10.4 ng/mL
fraction unbound at 5 h, 1 μg/mL ([2]; Rat (CD), read-out: f P (plasma-free fraction)): 0.53
fraction unbound at 5 h, 1 μg/mL ([2]; Rat (CD, Sprague Dawley), mean ± SD, n = 6, read-out: Plasma protein binding (converted)): 0.528
fraction unbound at 5 h, 1 μg/mL ([2]; Rat (LH), read-out: f P (plasma-free fraction)): 0.55
fraction unbound at 5 h, 1 μg/mL ([2]; Rat (LH, Lister hooded), mean ± SD, n = 6, read-out: Plasma protein binding (converted)): 0.545
brain/blood ratio [3]: 0.6
fraction unbound at 20 min [4]: 0.54
Kp ([5]; both sexes, cortex, primate, as worded, read-out: VT measured in the primate cortex): 4
Kp [5, 11]: 3.97
fraction unbound at 5 h, 1 μg/mL [6, 12]: 0.17
Brain tissue binding ([6]; 1 μg/mL, mean ± SD, n = 6): 83.2 (±1.1) %
fraction unbound at 5 h, 1 μg/mL [7, 12]: 0.13
Brain tissue binding ([7]; 1 μg/mL, mean ± SD, n = 6): 86.7 (±0.6) %
fraction unbound at 5 h, 1 μg/mL [8, 12]: 0.18
Brain tissue binding ([8]; 1 μg/mL, mean ± SD, n = 6): 81.8 (±1.8) %
Brain tissue binding ([9]; Rat (CD)): 87.7 (±0.5) %
Brain tissue binding ([9]; Rat (LH)): 84.9 (±1.0) %
fraction unbound at 5 h, 1 μg/mL ([9]; Rat (CD)): 0.12
fraction unbound at 5 h, 1 μg/mL ([9]; Rat (LH)): 0.15
fP/fND ratio (expected VT if passive diffusion) [10]: 3.4

[11CH3]c1cc(F)c2[nH]c(=O)n(C3CCN(C4CCOCC4)CC3)c2c1 [[^11C]GSK1034702]
fraction unbound at 20 min [4]: 0.54 ± 0.21
Regional K1 ([5]; Cerebellum, Subject A Exam 1, baboon): 0.46 mL.cm^-3.min^-1
Regional K1 ([5]; Cerebellum, Subject A Exam 2, baboon): 0.57 mL.cm^-3.min^-1
Regional K1 ([5]; Cerebellum, Subject B Exam 1, baboon): 0.35 mL.cm^-3.min^-1
Regional K1 ([5]; Frontal Ctx, Subject A Exam 1, baboon): 0.39 mL.cm^-3.min^-1
Regional K1 ([5]; Frontal Ctx, Subject A Exam 2, baboon): 0.53 mL.cm^-3.min^-1
Regional K1 ([5]; Frontal Ctx, Subject B Exam 1, baboon): 0.32 mL.cm^-3.min^-1
Regional K1 ([5]; Hippocampus, Subject A Exam 1, baboon): 0.39 mL.cm^-3.min^-1
Regional K1 ([5]; Hippocampus, Subject A Exam 2, baboon): 0.60 mL.cm^-3.min^-1
Regional K1 ([5]; Hippocampus, Subject B Exam 1, baboon): 0.32 mL.cm^-3.min^-1
Regional K1 ([5]; Occipital Ctx, Subject A Exam 1, baboon): 0.67 mL.cm^-3.min^-1
Regional K1 ([5]; Occipital Ctx, Subject A Exam 2, baboon): 0.53 mL.cm^-3.min^-1
Regional K1 ([5]; Occipital Ctx, Subject B Exam 1, baboon): 0.37 mL.cm^-3.min^-1
whole brain VT ([5]; Papio anubis, mean ± SD of three scans, two-tissue compartmental model): 3.97 ± 0.38 mL.cm^−3
Regional K1 ([5]; Striatum, Subject A Exam 1, baboon): 0.39 mL.cm^-3.min^-1
Regional K1 ([5]; Striatum, Subject A Exam 2, baboon): 0.51 mL.cm^-3.min^-1
Regional K1 ([5]; Striatum, Subject B Exam 1, baboon): 0.39 mL.cm^-3.min^-1
Regional K1 ([5]; Thalamus, Subject A Exam 1, baboon): 0.44 mL.cm^-3.min^-1
Regional K1 ([5]; Thalamus, Subject A Exam 2, baboon): 0.52 mL.cm^-3.min^-1
Regional K1 ([5]; Thalamus, Subject B Exam 1, baboon): 0.27 mL.cm^-3.min^-1
Regional K1 ([5]; Whole Brain, Subject A Exam 1, baboon): 0.45 mL.cm^-3.min^-1
Regional K1 ([5]; Whole Brain, Subject A Exam 2, baboon): 0.50 mL.cm^-3.min^-1
Regional K1 ([5]; Whole Brain, Subject B Exam 1, baboon): 0.35 mL.cm^-3.min^-1
Kp [5, 11]: 3.97
Kp ([5]; female, cerebellum, Cerebellum, Subject A Exam 1, baboon, read-out: Regional V T): 4.07
Kp ([5]; female, cerebellum, Cerebellum, Subject A Exam 2, baboon, read-out: Regional V T): 3.79
Kp ([5]; female, frontal cortex, Frontal Ctx, Subject A Exam 1, baboon, read-out: Regional V T): 3.92
Kp ([5]; female, frontal cortex, Frontal Ctx, Subject A Exam 2, baboon, read-out: Regional V T): 3.73
Kp ([5]; female, hippocampus, Hippocampus, Subject A Exam 1, baboon, read-out: Regional V T): 4.78
Kp ([5]; female, hippocampus, Hippocampus, Subject A Exam 2, baboon, read-out: Regional V T): 4.62
Kp ([5]; female, occipital cortex, Occipital Ctx, Subject A Exam 1, baboon, read-out: Regional V T): 4.49
Kp ([5]; female, occipital cortex, Occipital Ctx, Subject A Exam 2, baboon, read-out: Regional V T): 4.64
Kp ([5]; female, striatum, Striatum, Subject A Exam 1, baboon, read-out: Regional V T): 3.86
Kp ([5]; female, striatum, Striatum, Subject A Exam 2, baboon, read-out: Regional V T): 3.95
Kp ([5]; female, thalamus, Thalamus, Subject A Exam 1, baboon, read-out: Regional V T): 4.06
Kp ([5]; female, thalamus, Thalamus, Subject A Exam 2, baboon, read-out: Regional V T): 3.91
Kp ([5]; female, whole brain, Whole brain, Subject A Exam 1, baboon, read-out: Regional V T): 4.2
Kp ([5]; female, whole brain, Whole brain, Subject A Exam 2, baboon, read-out: Regional V T): 4.19
Kp ([5]; male, cerebellum, Cerebellum, Subject B Exam 1, baboon, read-out: Regional V T): 3.09
Kp ([5]; male, frontal cortex, Frontal Ctx, Subject B Exam 1, baboon, read-out: Regional V T): 3.52
Kp ([5]; male, hippocampus, Hippocampus, Subject B Exam 1, baboon, read-out: Regional V T): 3.52
Kp ([5]; male, occipital cortex, Occipital Ctx, Subject B Exam 1, baboon, read-out: Regional V T): 3.89
Kp ([5]; male, striatum, Striatum, Subject B Exam 1, baboon, read-out: Regional V T): 3.21
Kp ([5]; male, thalamus, Thalamus, Subject B Exam 1, baboon, read-out: Regional V T): 2.75
Kp ([5]; male, whole brain, Whole brain, Subject B Exam 1, baboon, read-out: Regional V T): 3.52
